The data set can be described thus: Pharmacokinetics study of intravenous injection of matrine or oxymatrine with addition of geranium oil. How it is done: The Sophora root typically is about 10-30 cm long, 1-2 cm in diameter and generally takes on a grayish brown or grayish yellow color. The root preferably has a mild scent and an extremely bitter taste. It is grown mainly in China, Korea, and Japan. Presently, the alkaloids identified in Sophora roots are matrine, oxymatrine, sophoranol, N-methylcytisine, anagyrine, baptifoline, sophocarpine, sophoridine, iso matrine, 7, 11-Dehydromatrine, sophoramine, 7-Dehydrosophoramine, 9α-Hydroxy-Sophoramine, 5α,9α-Dihydroxymatrine, N-Oxysophocarpine, sophoranol N-oxide, rhombifoline, Lupanine, Mamanine, Kuraramine, Isokuraramine, Kurarinol. The known main constituents are matrine, oxymatrine. The principal main constituents of Sophora flavescenes are also found in Sophora subprostrata, Sophora tonkinensis, Sophora alopecuroides, Sophora moorcroftiana, and Euchresta strigillosa.

Take `O=C1CCC[C@@H]2[C@H]3CCCN4CCC[C@@H](CN12)[C@@H]34` [matrine]: the “effect of addition of geranium oil on absorption and metabolism of the compound” value (intravenous injection, with vs without geranium oil) is “increase the absorption and metabolism”. As for `O=C1CCC[C@@H]2[C@H]3CCC[N+]4([O-])CCC[C@@H](CN12)[C@@H]34` (some centres unmarked) [oxymatrine], the “effect of addition of geranium oil on absorption and metabolism of the compound” value (in vivo, iv) is “increase the absorption and metabolism”.

For the origin of these results see patent publication US7387806B2, “Method of using geranium oil and sophora root extracts as a supporting composition in cancer treatments” (priority 2001, dated 2008).
